Measurements from US10111896B2, “Composition comprising a combination of DNA methylation inhibitor and a vitamin D receptor agonist for the treatment of drug resistant cancer or for the prevention of tumor relapse” (INSERM (Institut National de la Sante et de la Recherche …, priority 2014, dated 2018).

Legend:
FLT3-ITD/NPM1 AML blasts [1] = test: In vitro treatment of FLT3-ITD/NPM1 AML blasts, myeloid differentiation markers; format: cell-based
U937 cells xenograft = test: Subcutaneous U937 tumor xenograft in athymic Nude mice; format: in vivo, mouse; settings: 5-AZA 5 mg/kg i.p. five injections, INEC 20 μg per mice i.p. three times a week, vs control mice
Experimental: (B) U937 cells were mock-treated or treated with 5-AZA (5 μM), INEC (10 nM) or both for 72 hours. CD11b and CD14 expression was evaluated by flow cytometry. […] (C) HL60 cells were mock-treated or treated with 5-AZA (5 μM), with Vitamin D (300 nM) or INEC (10 nM) for 16 hours. Granocyte differentiation genes (PRTN3 and NE) and monocyte differentiation genes (TREML2 and SERPINB8) were accessed by qPCR. Results are presented as mean±SEM. (D) U937 cells were mock-treated or treated with 5-AZA (5 μM), INEC (10 nM) or both for 16 hours. VDR activation was evaluated by immunoblot using anti-phospho-VDR specific antibodies. VDR antibodies were used to control protein loading. […] (E) HL60 cells were mock-treated or treated with 5-AZA (5 μM), with INEC (10 nM) or both for 16 hours. Cell cycle analyses were performed by topro-3 labeling. Results are presented as mean±SEM. […] (F) Expression of cell cycle regulator genes p15, p21 and p27 was evaluated by qPCR. Results are presented as mean±SEM. (G) Kaplan-Meier plot of survival of mice treated with vehicle (PBS), 5-Acytidine (5 mg/kg intraperitoneally three times a week for five injections) and or INEC (20 μg per mice intraperitoneally, three time a week) after subcutaneous xenograft with U937 cells (n=8 tumors in each group). The p-value was determined using the log-rank test.
For tumor establishment, U937 or OCI-AML3 cells as indicated were mixed with Matrigel (BD Biosciences) (1:1, vol/vol) and injected subcutaneously (5×106/flank) into 10-week old female athymic Nude mice (Janvier laboratories, France). The mice were then injected i.p. with 5-Azacytidine (Celgene) (5 mg/kg on day 5, 7, 9, 11 and 13), Inecalcitol (Hybrigenics) (20 μg/day 3 times a week), and the combination of 5-Azacytidine and Inecalcitol or PBS as a vehicle control. The tumor growth was measured as previously described (Lepelletier 2007).

[2] = tested on: β-catenin in OCI-AML3 cells; test: β-catenin expression by flow cytometry in OCI-AML3 cells; format: cell-based, human; settings: INEC 10, 100 or 1000 nM, 48 hours
[3] = tested on: FLT3-ITD-transformed bone marrow hematopoietic progenitors; test: Methylcellulose colony-forming and replating assay of FLT3-ITD transformed cells; format: cell-based, mouse
Experimental: (A) Inecalcitol decreases clonogenicity of FLT3-ITD of transformed cells. FLT3-ITD-transformed bone marrow hematopoietic progenitors were plated (30.000 cells/condition) in semisolid methylcellulose media containing cytokines (M-3434) containing or not INEC (10 nM) and scored following 7 to 10 days of culture. For re-plating assays 10-30.000 cells were plated (as indicated) in the presence or in the absence of INEC (10 nM) for each condition. Histograms represents numbers of colonies (mean±SEM of three independent experiments). Results are presented as mean±SEM of 4 independent experiments.
Colony formation by transformed or not mouse cells was examined with the use of Methocult medium (MethoCult GF M3434, StemCell Technologies). WT and VDR−/− cells infected were collected from BMT with oncogene or not and transferred to Methocult medium. Colonies were scored one week after plating for determination of the number of colonies. For serial plating cells were collected from methylcellulose, washed once in PBS, counted and replated in Methocult. For some experiments, 10 nM Inecalcitol (hybrigenics) was added to the culture medium.
LIC are a subset of leukemic cells in the bulk leukemia population bearing resistance to chemotherapy and therefore at the origin of relapses. Next we explored the efficacy of VDR agonist therapy in targeting LIC cells. To test this hypothesis we transduced bone marrow precursors from wild-type and VDR−/− mice with the FLT3-ITD construct. Cells were plated in semi-solid cultures containing INEC or vehicle as a control (FIG. 6A). […] To further examine is the INEC effect was reversible we divided 2nd replating INEC-treated cultures in two groups containing INEC or a vehicle.

FLT3-ITD/NPM1 AML blasts [4] = test: Adoptive transfer of FLT3-ITD/NPM1 AML blasts and bone marrow cells in mice; format: in vivo, mouse
Description: In agreement, biological as well as immunophenotypic markers of leukemia cells were normalized in INEC-treated animals (FIG. 6C).

U937 cells = test: Myeloid differentiation, CD11b and CD14 expression by flow cytometry in AML cell lines; format: cell-based, human; settings: 5-AZA 5 μM, INEC 10 nM or both, 72 hours
Experimental: (A) Structural formulas of 1-25 dihydroxyvitamin D3 (VD) and VDR agonist Inecalcitol. http://www.chemblink.com/products/163217-09-2.htm. (B-D) Hypomethylating agents synergize with VDR agonists to promote myeloid differentiation and VDR activity. (B) U937 cells were mock-treated or treated with 5-AZA (5 μM), INEC (10 nM) or both for 72 hours. CD11b and CD14 expression was evaluated by flow cytometry. Results are presented in fold increase compared to vehicle Histograms are mean±SEM (n≥10; *p<0.05, **p<0.01, ***p<0.001). (C) HL60 cells were mock-treated or treated with 5-AZA (5 μM), with Vitamin D (300 nM) or INEC (10 nM) for 16 hours. Granocyte differentiation genes (PRTN3 and NE) and monocyte differentiation genes (TREML2 and SERPINB8) were accessed by qPCR. Results are presented as mean±SEM. (D) U937 cells were mock-treated or treated with 5-AZA (5 μM), INEC (10 nM) or both for 16 hours. VDR activation was evaluated by immunoblot using anti-phospho-VDR specific antibodies. VDR antibodies were used to control protein loading. (E-G) Combined Hypomethylating agents/VDR agonists therapy impairs tumor growth. (E) HL60 cells were mock-treated or treated with 5-AZA (5 μM), with INEC (10 nM) or both for 16 hours. […] (F) Expression of cell cycle regulator genes p15, p21 and p27 was evaluated by qPCR. […] The p-value was determined using the log-rank test. […]

AML cells = test: Dose-response studies of AML cells differentiation; format: cell-based; settings: compared with VD
VDR promoter [5] = test: Methylation-sensitive high resolution melting (MS-HRM) analysis on THP-1 cells; format: cell-based, human; settings: 5-AZA 1 μM, 96 hours
Experimental: (§1) (A) Schematic representation of the VDR promoter. 5′-CpG-3′ islands present in VDR promoter (region ranging from −1035 to −75+ bp relative to the exon 1a transcriptional start codon) represented by dashes. […] Cell viability was evaluated by ATP assay. Results are presented as mean±SEM (ns not significant, *p<0.05, **p<0.01, ***p<0.001). […] HL60 were mock-treated or treated with 5-AZA (5 μM) or Vitamin D ([…]; as positive control) for 6 hours. (E) VDR or VDR-target genes (CAMP and CYP24A1) expression was evaluated by qPCR. Results are presented as mean±SEM. […] Primary cells (n=3 patients) were mock-treated or treated with 5-AZA (5 μM) or inecalcitol (INEC; […]) or both for 6 hours. VDR or VDR-target genes (CAMP and CYP24A1) expression was evaluated by qPCR. Results are presented as mean±SEM.

[6] = tested on: VDR-target genes (CAMP and CYP24A1) in primary cells from AML patients; test: qPCR of VDR-target genes in leukemic cells from AML patients; format: cell-based, human; settings: primary cells from AML patients (n=3); 5-AZA 5 μM, 6 hours
Experimental: as §1

VDR promoter [7] = test: VDR promoter methylation analysis (methylation specific PCR) in primary AML samples; format: cell-based, human; settings: 5-AZA 1 μM, 96 hours, vs not treated
Experimental: as §1

[8] = tested on: VDR and VDR targeted genes (CAMP and CYP24A1) in HL60 cells; settings: 6 hours
Experimental: as §1

[9] = tested on: VDR-/- MLL-ENL transformed cells; test: Cell viability by ATP assay, VDR-/- MLL-ENL transformed cells; format: cell-based, mouse; settings: growing concentrations, 72 h
Experimental: as §1
(§2) Cells were seeded into 96-well plates, and then returned to the 37° C. incubator after the addition of different reactives or vehicle controls DMSO and ethanol if not otherwise stated. Celltiter Glo reagents (Promega) were added after 48 to 96 hours to determine cell viability by measuring ATP levels.

[10] = tested on: wild-type MLL-ENL transformed cells; test: Cell viability by ATP assay, wild-type MLL-ENL transformed cells; format: cell-based, mouse; settings: growing concentrations, 72 h
Experimental: as §1, §2

SMILES | expression of myeloid differentiation markers (FLT3-ITD/NPM1 AML blasts [1]) | survival of xenografted mice (U937 cells xenograft) | tumor size / tumor growth (U937 cells xenograft) | β-catenin pathway / expression [2] | CFC after INEC wash-out ([3]; 2nd replating INEC-treated cultures switched to vehicle) | decrease in clonogenic potential compared to vehicle-treated cells ([3]; INEC 10 nM in methylcellulose, first plating) [fold] | colonies at the 4th round of plating ([3]; INEC 10 nM, serial replating) | leukemia development after passive transfer of BM cells from treated animals (FLT3-ITD/NPM1 AML blasts [4]; in comparison to mock-treated animals) | biological and immunophenotypic markers of leukemia cells in treated animals (FLT3-ITD/NPM1 AML blasts [4]; mouse, in vivo) | leukemia development in mice adoptively transferred with treated cells (FLT3-ITD/NPM1 AML blasts [4]; mouse, in vivo) | increase in myeloid differentiation (CD11b and CD14 expression), fold increase compared to vehicle (U937 cells) [fold] | effectiveness to promote AML cells differentiation relative to VD (AML cells) [fold] | VDR promoter methylation (MS-HRM) (VDR promoter [5]) | VDR-target genes expression [6] | VDR promoter methylation (VDR promoter [7]) | expression of VDR targeted genes (CAMP and CYP24A1) ([8]; 5-AZA 5 μM or Vitamin D 1000 μM) | VDR expression, fold increase ([8]; 5-AZA 5 μM) [fold] | cell survival [9] | cell sensitivity (viability) [10]
C[C@H](CC#CC(C)(C)O)[C@H]1CC[C@@H]2/C(=C/C=C3C[C@@H](O)C[C@H](O)C3)CCC[C@@]21C [INEC, 19-nor-14-epi-23-yne-1,25-(OH)2D3] | increased expression | did not observe a significant effect | did not observe a significant effect | inhibits β-cathenin pathway | reestablished CFC | 5 | virtually no colonies | strongly delayed leukemia development | normalized | not able to develop leukemia | 4.5 | 1000 | – | – | – | – | – | – | –
Nc1ncn([C@@H]2O[C@H](CO)[C@@H](O)[C@H]2O)c(=O)n1 [5-AZA, 5-azacytidine] | – | did not observe a significant effect | did not observe a significant effect | – | – | – | – | – | – | – | 1.3 | – | revert VDR promoter methylation | induces VDR-target genes expression | decrease in methylation | induced the expression | 2 | not altered | sensitive
